Experimental data from patent US20230114123A1, “METHOD OF STIMULATING ASYMMETRIC DIVISION OF SATELLITE STEM CELLS” (Ottawa Hospital Research Institute, priority 2017, published 2023).

B1: Wnt7a ligand: known activator of symmetric satellite cell divisions (protein, UniProt O00755 32-349, looked up)
Protein Wnt-7a: LGASIICNKIPGLAPRQRAICQSRPDAIIVIGEGSQMGLDECQFQFRNGRWNCSALGERTVFGKELKVGSREAAFTYAIIAAGVAHAITAACTQGNLSDCGCDKEKQGQYHRDEGWKWGGCSADIRYGIGFAKVFVDAREIKQNARTLMNLHNNEAGRKILEENMKLECKCHGVSGSCTTKTCWTTLPQFRELGYVLKDKYNEAVHVEPVRASRNKRPTFLKIKKPLSYRKPMDTDLVYIEKSPNYCEEDPVTGSVGTQGRACNKTAPQASGCDLMCCGRGYNTHQYARVWQCNCKFHWCCYVKCNTCSERTEMYTCK

Tests used:
satellite stem cells = assay: EDL myofiber culture, satellite stem cell divisions (Myf5-Cre/R26R-eYFP, wild type); assay type: cell-based, mouse; details: 42 h culture, Lapatinib 1 μM vs DMSO vehicle
Description: EGFR Signaling Regulates Asymmetric Satellite Stem Cell Divisions. To assess the role of EGFR in asymmetric division, the inventors cultured satellite cells in myofibers isolated from Extensor digitorum longus (EDL) muscles from Myf5-Cre/R26R-eYFP mice and performed both loss-of-function and gain-of-function experiments. Isolated myofibers were first cultured for 42 h with and without treatment with the Lapatinib, a specific inhibitor of EGFR signaling.
EDL fiber Culture and siRNA Transfection. Myofiber culture was performed as described in Dumont, N. A., et al. “Dystrophin expression in muscle stem cells regulates their polarity and asymmetric division.” Nat. Med. (2015) 21:1455-63, which is incorporated herein by reference. Briefly, EDL were carefully dissected and incubated in DMEM with 2% L-glutamine, 4.5% glucose, and 110 mg/mL sodium pyruvate (Gibco) containing 0.2% collagenase I (Sigma) for 45 min. Myofibers were isolated using gentle trituration with a glass pipet. Myofibers were cultured for 36, 42, or 72 h in DMEM containing 20% FBS (Wisent), 1% chick embryo extract (MP Biomedicals), and 2.5 ng/ml bFGF (Cedarlane). For pharmacological inhibition, Lapatinib ditosylate (1 mM in DMSO; Santa
Cruz Biotechnology), PTP1b inhibitor CAS 765317-72-4 (10 mM in DMSO; Santa Cruz Biotechnologies) was added to the culture medium for a final concentration of 1 μM or 10 μM, respectively; equal dilution of DMSO was used as vehicle control.
Transfection of satellite cells on myofibers was performed using lipofectamine RNAimax (Life Technologies) and validated Smartpool siRNAs for EGFR, Aurka, or scramble (SCR) (Dharmacon). Two transfections were performed at 4 h and 16 h after isolation of the myofibers as described in Le Grand, et al. (2009) Wnt7a activates the planar cell polarity pathway to drive the symmetric expansion of satellite stem cells. Cell Stem Cell 4, pp 535-547, which is incorporated herein by reference. Knockdown efficiencies of the siRNA were validated in myoblasts by western blot and qRT-PCR.

EGFR signaling = assay type: cell-based
satellite cell divisions = assay: FDB myofiber screening method validation (YFP(-) divisions); assay type: cell-based, mouse; details: control 62% (Wnt7a experiment), control 45% (EGF / PTP1b experiment)
Text: EGFR pathway activators may be identified in a method of screening potential activators. The method includes visualizing isolated, cultured, and stained Flexor Digitorum Brevis (FDB) myofibers from Myf5-Cre/ROSA26-YFP mice in a plurality of Z-stack planes to create a projection image. Muscle satellite cells are identified in the projection image based on Pax7 expression. Of the identified muscle satellite cells: (i) satellite stem cells are identified based on the absence of YFP expression, and (ii) committed satellite progenitor cells are identified based on yellow fluorescence protein (YFP) expression. A potential EGFR pathway activator is administered to the FDB myofibers. The number of symmetric divisions of satellite myogenic cells, identified by the production of two YFP(+) satellite cells, are counted; the number of symmetric satellite stem cell divisions, identified by the production of two YFP(−) satellite cells, are counted; and the number of asymmetric satellite cell divisions, identified by the production of one YFP(+) and one YFP(−) satellite cell, are counted. The potential EGFR pathway activator is identified as an EGFR pathway activator when the percent of YFP(−) divisions that are asymmetric divisions is greater than the corresponding percent in a control sample. The expression “YFP(−) divisions” refers to all cell divisions where one of the daughter cells is YFP(−).
Identification of EGFR pathway activators. Flexor Digitorum brevis (FDB) fibers were isolated from Myf5-Cre/Rosa-YFP mice and digested in 0.25% Collagenase Type I (Sigma) in DMEM (Dulbecco's modified Eagle's medium; high glucose, L-glutamine with 110 mg/ml sodium pyruvate) for 2.5-3 h. Myofibers were dissociated using gentle trituration with a glass pipette.
Myofibers are cultured at 37° C., 5% CO2 for 42 h in myofiber culture media (DMEM supplemented with 20% FBS(Wisent), 1% Chicken Embryo extract (MP Biomediacals), 1% Penicillin/Streptomycin (Cederlane) and 2.5 ng/ml basic Fibroblast Growth Factor (Cedarlane).
Myofibers are first fixed in 2% Paraformaldehyde (PFA) for 5 mins. Myofibers are blocked for 1-2 h in 1% Bovine Serum Albumin, 0.5% TritonX-100, 5% HS and 0.01% Sodium Azide. Primary antibodies are applied in blocking solution for 2 h at room temperature or at 4° C. overnight. Myofibers are washed with PBS and stained with appropriate fluorescently labeled secondary antibodies (Alexa Fluor 488, 546) for 1 hat room temperature. Following washing with PBS, fiber nuclei are stained with DAPI for 5 min. The following antibodies are used: mouse anti-Pax7 (Developmental Studies Hybridoma Bank (DSHB)), chicken anti-GFP (cat. no. ab13970, Abcam).
Satellite cells are focused based on Channel 3 (DAPI) staining. Autofocus is performed by sampling seven (7) z-stacks taken at […] intervals for an extended depth of field of 85.3 μm.
Z-stack images were consolidated to create a projection image with all satellite cells in focus. Image acquisition of a projection image for analysis was created from seven (7) Z-stack images taken at 6.5 μm intervals, for an extended depth of field of 45.5 μm at 200 (Objective 20×) magnification. The projection direction was centered, where the median stacks fall within the center of each myofiber. […]
Potential satellite cells were first identified based on Channel 1 (Pax7) signal, and separated from other satellite cells based on intensity of fluorescence between cells. […]

Molecule | decrease in the rate of asymmetric divisions (satellite stem cells; FIG. 1A) | increase in the number of satellite stem cells (satellite stem cells; FIG. 1B) | EGFR signaling at the concentration used in the screen (EGFR signaling) | percentage of YFP(-) divisions that were symmetric divisions (satellite cell divisions)
CS(=O)(=O)CCNCc1ccc(-c2ccc3ncnc(Nc4ccc(OCc5cccc(F)c5)c(Cl)c4)c3c2)o1 [Lapatinib, reference compound] | 83% | 71% | completely abolishes EGFR signaling | –
B1 | – | – | – | 78%
